Laboratory results reported in ChEMBL document CHEMBL3507680, “University of Dundee, Gates Library screen for HepG2 cell viability”.

Experiment: Human HepG2 cell viability assay in 384 well format
Type: toxicity, cell-based
Set-up: dose 125 nL, time 70.5 hour; concentration not given beside the values
Settings: HepG2 cells, read-out: Inhibition

SMILES	cytotoxicity at 70.5 h
Cc1nn(CCO)c(C)c1CNC1CCc2c(F)cccc21 (centres undefined)	0.27%
CCNc1ncc2c(n1)CN(c1cccc(OC)c1)C2=O	-7.43%
O=C([C@@H]1C[C@@H]2CCN(c3cccc(F)c3)C[C@H]2O1)N1CCCC1	27.2%
CCc1c(C)n(CC(C)=O)c2nc3ccccc3n2c1=O	-18.1%
Cc1cccc(N2CCC3(CCCN3Cc3c(C)nn(C)c3C)CC2)n1	-3.1%
Cc1cnc(N2CCOC3(CCCN(c4ncccn4)C3)C2)nc1 (centres undefined)	-4.18%
CCN1CCN(C[C@@H]2CN(c3ncccc3Cl)C[C@@H]2CO)CC1	-3.91%
CC(C)CN1Cc2nc(N3CCC(O)CC3)ncc2C1=O	12.9%
CN(Cc1cccs1)C1CCC[C@@H]2CN(C(N)=O)C[C@H]12 (some centres undefined)	-10.5%
Fc1ccccc1CN1C[C@H](OCC2CCOCC2)[C@H]2OCCC[C@H]21	17.2%
COCCN(c1cc(C)nc2nc(C(F)(F)F)nn12)C1CCCC1	12.8%
CN(CCO)C[C@@H]1CN(Cc2ccccc2C#N)C[C@@H]1CO	-3.5%
CCN1C(=O)C2(CCOCC2)c2cc(NC(=O)c3cc(C)n[nH]3)ccc21	-3.02%
O=C1CCC2(CCCN(c3ncc(Cl)cc3F)C2)CN1CC1CC1 (centres undefined)	-1.6%
CSCCN1CCN(c2nc(N)ncc2C)CC1	21.4%
COCCNc1cc(-c2ccccc2CCN)c2cc[nH]c2n1	-2.8%
O=C(c1ccncc1)N1CCC2(CC1)CCN(C(=O)c1cccnc1)C2	-7.65%
c1nc(C2CCCCO2)ncc1CN1CCOCC1 (centres undefined)	-4.04%
O=C(NCC1CCN(Cc2cc3ccccc3[nH]2)C1)c1ccsc1 (centres undefined)	-9.16%
O=C(NCc1nnc2n1CCCCC2)N(CC1CCOC1)C1CC1 (centres undefined)	17.7%
COC(=O)CC(c1ccccc1)c1oc(C)cc(=O)c1O (centres undefined)	6.19%
CC(NC(=O)NCCCN1CCCC1)c1nncn1C (centres undefined)	-7.79%
O=C([C@H]1CCCO1)N1CCN(CCn2cccn2)c2ncccc2C1	-5.29%

SMILES	cytotoxicity at 70.5 h
CCN1CC2(CC1=O)CN(C(=O)c1ccoc1)CCN(C(=O)N(C)C)C2 (centres undefined)	3.23%
CCN(CC)Cc1ccc(C(=O)NC2CCc3ccccc32)o1 (centres undefined)	21.6%
Cc1cnn(CC(C)NCc2cccc(C#N)c2)c1 (centres undefined)	2.17%
Cc1cc(CN2CCN3C[C@H](c4ccccc4)[C@@H](CO)[C@H]3C2)on1	-5.95%
COc1cccc(NC(=O)N2CC[C@@H]3CN(C)S(=O)(=O)[C@@H]3CC2)c1	20.9%
Cc1cccc(N2CC[C@H]3CO[C@H](CN(C)Cc4ccco4)[C@H]3C2)n1	-2.06%
Cn1ccnc1COc1ccc(NC(=O)CCC2CCCO2)cc1 (centres undefined)	-5.92%
CCS(=O)(=O)N1CCc2c(cccc2NCc2nc(C)c(C)o2)C1	19.1%
CC(C(N)=O)N(C)Cc1ccccc1C(F)(F)F (centres undefined)	-87.9%
Cc1ccnc(NC(=O)c2[nH]nc(C(C)C)c2Br)c1	19.7%
COCC(C)(CCO)NC(=O)Nc1cccc(F)c1C (centres undefined)	21.4%
Cc1nn(C)c(N(C)C)c1CNCc1ccc(C(=O)N(C)C)cc1	4.69%
Cc1ccc(-c2ccnc(N(C)CC3CCCO3)n2)c(C)n1 (centres undefined)	-6.23%
O=C1[C@H]2CN(Cc3cccs3)C[C@H]2CN1c1cncnc1	-6.91%
CCn1cnnc1CNC(=O)N(C)Cc1ccccc1OC	-4%
Cc1ncsc1CN1CCn2c(COCC3CC3)cnc2C1C (centres undefined)	-2.63%
CCSc1cncc(N2CCC(C(=O)Nc3ccccn3)CC2)n1	-3.08%
OCCN1CCC2(CC1)CC(NCc1ccccn1)c1ccccc1O2 (centres undefined)	-0.919%
O=C(c1ccc(C2CCCN2C(=O)c2ccc[nH]2)s1)N1CCSCC1 (centres undefined)	-19.6%
NC(=O)CS(=O)(=O)Cc1ccc(F)cc1	-1.66%
CCCS(=O)(=O)NCC(C)c1ccc(F)c(F)c1 (centres undefined)	6.33%
CCc1noc(CN(CC)Cc2cc3cc(C)ccc3[nH]c2=O)n1	-10.7%
CC(C)=CCN1C(=O)[C@H]2CC[C@@H]1CN(c1ncccc1C(N)=O)C2	-9.49%

SMILES	cytotoxicity at 70.5 h
CCc1ncc2c(n1)CN(CC(=O)NC1CCCCNC1=O)CC2 (centres undefined)	1.9%
Cc1nc(C)n(CC2CCCCN2CC(=O)Nc2nnc(C)s2)n1 (centres undefined)	1.52%
Nc1cnc(-c2cccc3ccnn23)cn1	14.2%
O=C(C1CCOCC1)N1CC[C@H]2C[C@@H](c3ccncn3)O[C@@H]2C1	-8.58%
CC(C)Oc1ccc(CNC(=O)C2CCC(=O)N2)cn1 (centres undefined)	23%
CC(C)N1CC2(CCC1=O)CCN(C(=O)c1cccc(F)c1F)CC2	-5.47%
O=C(CNc1nc(C2CC2)ns1)N1CCc2sccc2C1	-10.8%
O=C(O)c1nc(SCc2ccccc2)ncc1Br	-8.29%
CNC(=O)C(C)(C)N1CCC[C@H]1C(=O)NCCN(C)C	-16.8%
Cc1nn(C)c2ncc(NC(=O)N(C)Cc3cc(Cl)cn3C)cc12	-4.9%
Cc1nnc(SCC(=O)NCC(c2ccccc2Cl)N(C)C)s1 (centres undefined)	-7.07%
CCCNC(=O)c1nn(CC)cc1Cl	-3.27%
COCCN1CCCn2c(nc(CNS(C)(=O)=O)cc2=O)C1	-6.97%
Cn1ccnc1-c1ccc(NCc2cn3c(n2)SCC3)nn1	-1.93%
COCC(=O)Nc1ccc(-c2noc([C@@H]3CCCN3CC(C)C)n2)cn1	10.2%
Cc1cc(-c2nn(C)c(Cl)c2CN2Cc3ccccc3C(O)C2)no1 (centres undefined)	-11.3%
CC(C(=O)N1CCc2ccccc21)N1CCc2cncnc2C1 (centres undefined)	-3.31%
COc1ccc2c(c1)CCCN2C(=O)CN1CCOC(C)C1 (centres undefined)	0.691%
O=C(c1cnccn1)N1CCC2(CCN(Cc3ccsc3)CC2)CC1	-2.48%
NC(=O)Cn1cc(NC(=O)N2CCCCCC2)cn1	-11.1%
CC(C)c1cnc(CN(C)C2CCN(CCCc3cnn(C)c3)C2)o1 (centres undefined)	20.9%
CCc1nc(CSC2CCCN(c3cnn(C)c3)C2=O)cs1 (centres undefined)	7.29%
CC(=O)N1CCC2(CC1)c1ncc(-c3ccccc3)n1CCN2C(C)=O	-5.58%

SMILES	cytotoxicity at 70.5 h
O=C(NC1CCCN(c2ccccc2Cl)C1)c1c[nH]nn1 (centres undefined)	-10.1%
COc1cccc(OC)c1CN1CC(O)CN(S(C)(=O)=O)CC1=O (centres undefined)	25.6%
CN(C)CCNC(=O)C1Cc2nc(-c3ccccc3)sc2N1CC1CC1 (centres undefined)	-11%
CCc1noc(C(C)N2CCN(Cc3noc(C4CC4)n3)CC2)n1 (centres undefined)	-8.62%
CCC[C@H]1CN(c2nccc(OC)n2)C[C@@H]1NC(=O)C1CCOCC1	-6.8%
COc1cc(C(=O)NCCc2cccc(C)c2)on1	2.66%
CN(CCC(C)(C)O)C(=O)C1CCC(=O)N(Cc2ccc(Cl)cc2)C1 (centres undefined)	-5.36%
Cc1nc(CNC(=O)CCN2CCN(c3ccccc3)CC2)oc1C	2.07%
Cc1ccc(C(C(=O)NCc2cc(C)[nH]n2)N(C)C)cc1 (centres undefined)	-8.58%
Cc1nnsc1CNC(=O)Nc1cccc(N2CCN(C)C2=O)c1	5.12%
O=C(CC1CCC2(CC1)CCN(Cc1cccnc1)CC2)N1CC=CC1	-8.62%
Cn1nc(CNC(=O)C2CC2)cc1C1CC1	8.22%
Cc1ccnc2c1NC(=O)CN2C(=O)CCc1ccccc1	-13.4%
Cc1cc(C)n(CC2CCCN2CCCS(C)(=O)=O)n1 (centres undefined)	-7.95%
CCC1CN(C(=O)c2cnc(-c3cnn(C)c3)s2)CCO1 (centres undefined)	-6.34%
COc1ccnc(N2CCC(=O)N(CC3CC3)C(C(C)C)C2)n1 (centres undefined)	32.2%
Cc1nc(C2CCCN2C(=O)COc2ccccc2)ncc1C(N)=O (centres undefined)	-4.1%
CN(Cc1nnc(C2CCC2)o1)C(C(N)=O)c1cccc(F)c1 (centres undefined)	-1.86%
O=C(O)c1ccn(-c2ccccc2NS(=O)(=O)c2cccc(F)c2)n1	7.58%
Cc1cccc(CNCC2COC3(CCCCC3)O2)c1C (centres undefined)	34.7%
CCCNC(=O)c1ccc(-c2ccco2)[nH]c1=O	-2.1%
CC(C)NC(=O)CC(C)NC(=O)N(C)Cc1cc(Cl)cn1C (centres undefined)	-8.56%
O=C(NCCc1ccccc1Cl)NCC1(O)CCSC1 (centres undefined)	3.74%

SMILES	cytotoxicity at 70.5 h
CC1CN(CC(=O)Nc2nncs2)CCN1Cc1nccn1C (centres undefined)	-4.59%
Cc1cccc(O[C@H]2COCCN(Cc3sc(C)nc3C)C2)n1	10.9%
OC(CN1CCOCC1)c1ccc(Br)cc1 (centres undefined)	-4.1%
CN(Cc1ccsc1)Cc1nc(-c2cnccn2)no1	-6.12%
Cc1csc(NC(=O)C2CCN(Cc3cccc4c3OCCO4)CC2)n1	8.1%
O=C(NCCc1cccs1)N1CCCC2(CCC(=O)N(C3CC3)C2)C1 (centres undefined)	-0.67%
Cc1nc2ccccc2nc1CN1CCCC1Cn1cncn1 (centres undefined)	19.7%
CCC1=NC(SCC(=O)c2ccc(Cl)cc2)c2cc(CC)sc2N1 (centres undefined)	-11%
Cc1cc2n(n1)CC(CNCc1ccc(OCC3CC3)nc1)CN2 (centres undefined)	7.09%
CS(=O)(=O)c1cn[nH]c1C1CCCN(C(=O)Cn2cccn2)C1 (centres undefined)	-9.34%
NC(=O)c1cc2c(nc1-c1ccoc1)CCC2	-6.2%
Cc1cc2ccccc2n1CC(=O)NCC(=O)N1CCOCC1	-13.2%
CC(=O)N1CCN(c2nc3c(cnn3C(C)(C)C)c(=O)[nH]2)CC1	-1.03%
Cc1cc(C(=O)CN2CCN(c3nccs3)CC2)c(C)n1C1CC1	-10.5%
COc1ccccc1CN1CC[C@H]2C[C@@H](C(=O)N3CCCC3)O[C@H]2C1	-7.49%
CCOCC1CN(C(=O)c2cccc(C)n2)Cc2cnn(C)c21 (centres undefined)	-11.5%
Cc1cnn(CC2CN(c3ncnc4ccccc34)CCO2)c1 (centres undefined)	31.7%
CSc1ccc(C(=O)C2CCCN(C(=O)CCn3cncn3)C2)cc1 (centres undefined)	-16.6%
O=C(Nc1ccccc1OCCc1ccccn1)N1CCOCC(O)C1 (centres undefined)	-8.87%
CC1CN(c2ncccc2C(=O)N[C@@H]2CCCc3ccccc32)CCN1 (some centres undefined)	-4.37%
CC(C)c1ncc(Cl)c(C(=O)N2CCN3CCCCC3C2)n1 (centres undefined)	36.2%
CC(C)Oc1ccc(CN2CCC(Cc3nnc(CO)n3C)CC2)cc1	-0.794%
